Test system: Spontaneously hypertensive rats (SHR)
Assay: Acute Efficacy in Spontaneously Hypertensive Rats (SHR), telemetry blood pressure
Type: in vivo, rat
Summary of the method: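 Male SHR with aortic telemetry catheters, 14-day recovery, conscious and freely moving; single oral gavage in 10% transcutol/20% Cremophor/70% water. BP sampled 30 s every 10 min, hourly averages minus prior-day vehicle baseline; value is maximum peak SBP decrease at stated mg/kg PO dose.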

Row | Compound | Maximum peak decrease of systolic blood pressure (SBP) in SHR, Category (single oral dose 1 mpk P.O.) | Maximum peak decrease of systolic blood pressure (SBP) in SHR, Category (single oral dose 0.3 mpk P.O.) | further results
1 | CC1(C(N)=O)C(=O)Nc2nc(-c3nn(CCC(F)(F)C(F)(F)F)c4nc(Cl)ccc34)nc(N)c21 (stereo not drawn) [Example 214, 4-amino-2-[6-chloro-1-(3,3,4,4,4-pentafluorobutyl)-1H-pyrazolo[3,4-b]pyridin-3-yl]-5-methyl-6-oxo-6,7-dihydro-5H-pyrrolo[2,3-d]pyrimidine-5-carboxamide] |  |  | Maximum peak decrease of systolic blood pressure (SBP) in SHR, Category (single oral dose 0.1 mpk P.O.): A (Category A=SBP in SHRs<25 mmHg)
2 | NC(=O)C1(C2CC2)C(=O)Nc2nc(-c3nn(CCCC(F)(F)F)c4ncccc34)nc(N)c21 (stereo not drawn) [Example 247, 4-amino-5-cyclopropyl-6-oxo-2-[1-(4,4,4-trifluorobutyl)-1H-pyrazolo[3,4-b]pyridin-3-yl]-6,7-dihydro-5H-pyrrolo[2,3-d]pyrimidine-5-carboxamide] | C (Category C=SBP in SHRs>40 mmHg) |  | 
3 | CC1(C(=O)NC2CC2)C(=O)Nc2nc(-c3nn(CCC(F)(F)F)c4nc(Cl)ccc34)nc(N)c21 (stereo not drawn) [Example 183, 4-Amino-2-[6-Chloro-1-(3,3,3-Trifluoropropyl)-1H-Pyrazolo[3,4-B]Pyridin-3-yl]-N-Cyclopropyl-5-Methyl-6-Oxo-6,7-Dihydro-5H-Pyrrolo[2,3-D]Pyrimidine-5-Carboxamide] |  | C (Category C=SBP in SHRs>40 mmHg) | 
4 | CC1(c2ncccn2)C(=O)Nc2nc(-c3nn(CCC(F)(F)C(F)(F)F)c4ncccc34)nc(N)c21 (single isomer, unassigned) [Example 170, 4-Amino-5-Methyl-2-[1-(3,3,4,4,4-Pentafluorobutyl)-1H-Pyrazolo[3,4-B]Pyridin-3-yl]-5-Pyrimidin-2-yl-5,7-Dihydro-6H-Pyrrolo[2,3-D]Pyrimidin-6-One] | C (Category C=SBP in SHRs>40 mmHg) |  | Maximum SBP reduction (dose 1.0 mpk): 65 ± 13 mmHg
5 | CC1(C(=O)NC2CC2)C(=O)Nc2nc(-c3nn(CCC(F)(F)C(F)(F)F)c4ncccc34)nc(N)c21 (stereo not drawn) [Example 164, 4-Amino-N-Cyclopropyl-5-Methyl-6-Oxo-2-[1-(3,3,4,4,4-Pentafluorobutyl)-1H-Pyrazolo[3,4-B]Pyridin-3-yl]-6,7-Dihydro-5H-Pyrrolo[2,3-D]Pyrimidine-5-Carboxamide] |  | C (Category C=SBP in SHRs>40 mmHg) | 
6 | Cn1cc(C2(C)C(=O)Nc3nc(-c4nn(CCC(F)(F)C(F)(F)F)c5cc(Cl)ccc45)nc(N)c32)cn1 (stereo not drawn) [Example 229, 4-amino-2-[6-chloro-1-(3,3,4,4,4-pentafluorobutyl)-1H-indazol-3-yl]-5-methyl-5-(1-methyl-1H-pyrazol-4-yl)-5,7-dihydro-6H-pyrrolo[2,3-d]pyrimidin-6-one] | C (Category C=SBP in SHRs>40 mmHg) |  | 
7 | Nc1nc(-c2nn(CCC(F)(F)C(F)(F)F)c3ncccc23)nc2c1C(C(=O)NC1CC1)(C1CCCC1)C(=O)N2 (stereo not drawn) [Example 243, 4-amino-5-cyclopentyl-N-cyclopropyl-6-oxo-2-[1-(3,3,4,4,4-pentafluorobutyl)-1H-pyrazolo[3,4-b]pyridin-3-yl]-6,7-dihydro-5H-pyrrolo[2,3-d]pyrimidine-5-carboxamide] | B (Category B=SBP in SHRs 25-40 mmHg) |  | 
8 | CC1(c2nnc(C3CC3)o2)C(=O)Nc2nc(-c3nn(CCCC(F)(F)F)c4ncccc34)nc(N)c21 (stereo not drawn) [Example 225, 4-amino-5-(5-cyclopropyl-1,3,4-oxadiazol-2-yl)-5-methyl-2-[1-(4,4,4-trifluorobutyl)-1H-pyrazolo[3,4-b]pyridin-3-yl]-5,7-dihydro-6H-pyrrolo[2,3-d]pyrimidin-6-one] |  | C (Category C=SBP in SHRs>40 mmHg) | 
9 | Cc1ccc2c(-c3nc(N)c4c(n3)NC(=O)C4(C)C(=O)NC3CC3)nn(CCC(F)(F)F)c2n1 (stereo not drawn) [Example 184, 4-Amino-N-Cyclopropyll-5-Methyl-2-[6-Methyl-1-(3,3,3-Trifluoropropyl)-1H-Pyrazolo[3,4-B]Pyridin-3-yl]-6-Oxo-6,7-Dihydro-5H-Pyrrolo[2,3-D]Pyrimidine-5-Carboxamide] |  | A (Category A=SBP in SHRs<25 mmHg) | Maximum SBP reduction (dose 0.3 mpk): 19 ± 5 mmHg
10 | CCn1cc(C2(C)C(=O)Nc3nc(-c4nn(CCC(F)(F)C(F)(F)F)c5ncccc45)nc(N)c32)nn1 (stereo not drawn) [Example 173, 4-Amino-5-(1-Ethyl-1H-1,2,3-Triazol-4-yl)-5-Methyl-2-[1-(3,3,4,4,4-Pentafluorobutyl)-1H-Pyrazolo[3,4-B]Pyridin-3-yl]-5,7-Dihydro-6H-Pyrrolo[2,3-D]Pyrimidin-6-One] |  | C (Category C=SBP in SHRs>40 mmHg) | Maximum SBP reduction (dose 0.3 mpk): 66 ± 6 mmHg
11 | CC1(c2nnc(CC(F)(F)F)o2)C(=O)Nc2nc(-c3nn(CCC(F)(F)C(F)(F)F)c4ncccc34)nc(N)c21 (stereo not drawn) [Example 216, 4-amino-5-methyl-2-[1-(3,3,4,4,4-pentafluorobutyl)-1H-pyrazolo[3,4-b]pyridin-3-yl]-5-[5-(2,2,2-trifluoroethyl)-1,3,4-oxadiazol-2-yl]-5,7-dihydro-6H-pyrrolo[2,3-d]pyrimidin-6-one] |  |  | Maximum peak decrease of systolic blood pressure (SBP) in SHR, Category (single oral dose 0.1 mpk P.O.): A (Category A=SBP in SHRs<25 mmHg)
12 | COc1ccc2c(-c3nc(N)c4c(n3)NC(=O)C4(C)C(N)=O)nn(CCC(F)(F)C(F)(F)F)c2n1 (stereo not drawn) [Example 220, 4-amino-2-[6-methoxy-1-(3,3,4,4,4-pentafluorobutyl)-1H-pyrazolo[3,4-b]pyridin-3-yl]-5-methyl-6-oxo-6,7-dihydro-5H-pyrrolo[2,3-d]pyrimidine-5-carboxamide] | B (Category B=SBP in SHRs 25-40 mmHg) |  | 
13 | CC1(C(=O)NC2CC2)C(=O)Nc2nc(-c3nc(CCC(F)(F)C(F)(F)F)n4cc(F)ccc34)nc(N)c21 (stereo not drawn) [Example 252, 4-amino-H-cyclopropyl-2-[6-fluoro-3-(3,3,4,4,4-pentafluorobutyl)imidazo[1,5-a]pyridin-1-yl]-5-methyl-6-oxo-6,7-dihydro-5H-pyrrolo[2,3-d]pyrimidine-5-carboxamide] |  | B (Category B=SBP in SHRs 25-40 mmHg) | 
14 | CC(C)n1nc(C2(C)C(=O)Nc3nc(-c4nn(CCC(F)(F)C(F)(F)F)c5cc(Cl)ccc45)nc(N)c32)oc1=O (stereo not drawn) [Example 171, 4-Amino-2-[6-Chloro-1-(3,3,4,4,4-Pentafluorobutyl)-1H-Indazol-3-yl]-5-Methyl-5-[5-Oxo-4-(Propan-2-yl)-4,5-Dihydro-1,3,4-Oxadiazol-2-yl]-5,7-Dihydro-6H-Pyrrolo[2,3-D]Pyrimidin-6-One] |  | C (Category C=SBP in SHRs>40 mmHg) | 
15 | COc1ccc2c(-c3nc(N)c4c(n3)NC(=O)C4(C)C(=O)NC3CC3)nn(CCC(F)(F)F)c2n1 (stereo not drawn) [Example 185, 4-Amino-N-Cyclopropyl-2-[6-Methoxy-1-(3,3,3-Trifluoropropyl)-1H-Pyrazolo[3,4-B]Pyridin-3-yl]-5-Methyl-6-Oxo-6,7-Dihydro-5H-Pyrrolo[2,3-D]Pyrimidine-5-Carboxamide] | C (Category C=SBP in SHRs>40 mmHg) |  | Maximum SBP reduction (dose 1.0 mpk): 43 ± 7 mmHg
16 | CC1(C(=O)NC2CC2)C(=O)Nc2nc(-c3nn(CCC(F)(F)C(F)(F)F)c4cc(Cl)ccc34)nc(N)c21 (single isomer, unassigned) [Example 160, 4-Amino-2-[6-Chloro-1-(3,3,4,4,4-Pentafluorobutyl)-1H-Indazol-3-yl]-N-Cyclopropyl-5-Methyl-6-Oxo-6,7-Dihydro-5H-Pyrrolo[2,3-D]Pyrimidine-5-Carboxamide] |  | C (Category C=SBP in SHRs>40 mmHg) | Maximum SBP reduction (dose 0.3 mpk): 77 ± 10 mmHg
